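Values below derive from 48-hour exposures of cells grown in 96-well plates, with endpoints linearly interpolated between the two concentrations bracketing the appropriate inhibition level. GI50 = concentration required for 50% inhibition of growth.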 Activity calls are given as the source filed them. Rule as the data show it: active = GI50 up to about 1.1 µM and inactive = higher.
Columns and labels:
Assay in all cases: NCI anticancer screen, dose series, 48 h
BT-549 = test system: BT-549
786-0 = test system: 786-0
LXFL 529 = test system: LXFL 529
DMS-114 = test system: DMS-114
DLD-1 = test system: DLD-1
M19-MEL = test system: M19-MEL
XF498 = test system: XF498
HOP-18 = test system: HOP-18
RXF 631 = test system: RXF 631

Row | SMILES | GI50 (BT-549) | GI50 (786-0) | GI50 (DMS-114) | GI50 (DLD-1) | GI50 (M19-MEL) | GI50 (XF498) | GI50 (HOP-18) | also measured
1 | COC(=O)c1cn(CC(O)CCl)nn1 (stereo not drawn) | > 100 µM (inactive) |  |  |  |  |  |  | 
2 | CC(=O)Oc1ccccc1C(=O)Nc1ncc([N+](=O)[O-])s1 [NITAZOXANIDE] | 14.4 µM (inactive) | 26.7 µM (inactive) |  |  |  |  |  | 
3 | N#C/N=N/c1cc(Cl)c(/N=N/C#N)cc1Cl |  |  | > 100 µM (inactive) | > 100 µM (inactive) | > 100 µM (inactive) | > 100 µM (inactive) |  | GI50 (LXFL 529): 28.3 µM (inactive)
4 | Cc1cc(C)n(C(=C(C(Cl)=C(Cl)Cl)[N+](=O)[O-])n2nc(C)cc2C)n1 | 4.56 µM (inactive) |  |  |  |  |  |  | 
5 | N#Cc1c(=O)c2cccnc2n2c1[nH]c1ccccc12 | 57.3 µM (inactive) | 32.1 µM (inactive) |  |  |  |  |  | 
6 | COc1ccc(N2C(=O)C3c4[nH]c5ccc(C)cc5c4C4CCC(c5ccccc5)CC4C3C2=O)cc1 (stereo not drawn) | 42.3 µM (inactive) | 9.64 µM (inactive) |  |  |  |  |  | 
7 | O=C(N1CCOCC1)C1(c2ccccc2)CCNCC1 | > 100 µM (inactive) | > 100 µM (inactive) |  |  |  |  |  | 
8 | Cc1cnc(/N=c2\sc(C)cn2-c2ncc(C)s2)s1 | > 100 µM (inactive) | > 100 µM (inactive) |  |  |  |  |  | 
9 | CN(C)CCCn1c(-c2cc(C(C)(C)C)c(O)c(C(C)(C)C)c2)cs/c1=N\c1ccccc1 | 3.13 µM (inactive) |  |  |  |  |  |  | 
10 | CN(C)CCNC(=O)c1cccc2ccc(-c3ccc(F)cc3)nc12 |  |  | 5.48 µM (inactive) | 3.64 µM (inactive) | 4.33 µM (inactive) | 2.94 µM (inactive) | 17.4 µM (inactive) | 
11 | Cc1ccc(Cl)c2c1NC(=O)/C2=N\Nc1ccccc1[N+](=O)[O-] |  | 28.8 µM (inactive) |  |  |  |  |  | 
12 | CCCNC(=S)N/C=C1/C(=O)Oc2ccccc2C1=O | > 100 µM (inactive) | > 100 µM (inactive) |  |  |  |  |  | 
13 | O=C(NN1C(=O)CS(=O)(=O)C1c1ccc(Cl)c(Cl)c1)c1ccncc1 (stereo not drawn) |  |  | 61.2 µM (inactive) | > 100 µM (inactive) | > 100 µM (inactive) | > 100 µM (inactive) | > 100 µM (inactive) | 
14 | CC1(C)CC(=O)C2=C(C1)OC1=C(CC(C)(C)CC1=O)C2c1ccccc1[N+](=O)[O-] (stereo not drawn) |  | > 100 µM (inactive) |  |  |  |  |  | 
15 | O=[N+]([O-])c1ccc2[nH]c3c(-c4ccccc4)nccc3c2c1 |  |  | 18.9 µM (inactive) | 3.73 µM (inactive) | 25.9 µM (inactive) | 29.4 µM (inactive) | 18 µM (inactive) | 
16 | CCOC(=O)CCC(C(=O)OCC)n1nc2ccc(Nc3c(C)[n+]([O-])c4cc(Cl)ccc4[n+]3[O-])cc2n1 (stereo not drawn) | > 100 µM (inactive) | 83.9 µM (inactive) |  |  |  |  |  | 
17 | [O-][n+]1onc(-c2ccccc2)c1-c1no[n+]([O-])c1-c1c(-c2ccccc2)no[n+]1[O-] |  | 8.93 µM (inactive) |  |  |  |  |  | 
18 | CC(=O)Nc1ccc(C2[C@H]3C(=O)N(c4ccc(Cc5ccc(N6C(=O)[C@@H]7ON(c8ccccc8)C(c8ccc(NC(C)=O)cc8)[C@@H]7C6=O)cc5)cc4)C(=O)[C@H]3ON2c2ccccc2)cc1 (stereo partly drawn) |  | > 100 µM (inactive) | > 100 µM (inactive) | > 100 µM (inactive) | 44.2 µM (inactive) |  | > 100 µM (inactive) | GI50 (LXFL 529): > 100 µM (inactive)

Row | SMILES | GI50 (BT-549) | GI50 (786-0) | GI50 (DMS-114) | GI50 (DLD-1) | GI50 (M19-MEL) | GI50 (XF498) | GI50 (HOP-18) | also measured
19 | COc1cc(/C=C/C(=O)OC[C@]23O[C@H]2[C@@H](OC2OC(C)C(O)C(O)C2O)C2C=CO[C@@H](OC4OC(CO)C(O)C(O)C4O)C23)ccc1O (stereo partly drawn) | > 100 µM (inactive) | > 100 µM (inactive) |  |  |  |  |  | 
20 | O=c1[nH]c(=O)n(C2CC(O)C(CO)O2)cc1C(OCC(F)(F)F)OCC(F)(F)F (stereo not drawn) |  | > 100 µM (inactive) | > 100 µM (inactive) | > 100 µM (inactive) | > 100 µM (inactive) | > 100 µM (inactive) |  | GI50 (LXFL 529): > 100 µM (inactive); GI50 (RXF 631): > 100 µM (inactive)
21 | C[Si](C)(C)/C=C/CN1C(=O)CCC1=O |  |  | > 100 µM (inactive) | > 100 µM (inactive) | > 100 µM (inactive) | > 100 µM (inactive) | 40.1 µM (inactive) | GI50 (LXFL 529): > 100 µM (inactive)
22 | CC(=O)OCC1OC(n2c3c(c(-c4ccco4)c(C#N)c2=S)CCC3)C(OC(C)=O)C(OC(C)=O)C1OC(C)=O (stereo not drawn) | 43.9 µM (inactive) | 49.7 µM (inactive) |  |  |  |  |  | 
23 | COc1c(Br)cc(CC(N)=O)c(O)c1Br |  |  | > 100 µM (inactive) | > 100 µM (inactive) | > 100 µM (inactive) | > 100 µM (inactive) | > 100 µM (inactive) | GI50 (RXF 631): > 100 µM (inactive)
24 | COC(=O)C(Cc1c[nH]c2ccccc12)NP(=O)(O)OCC1OC(n2ccc(N)nc2=O)C(O)C1O (stereo not drawn) | > 100 µM (inactive) | > 100 µM (inactive) |  |  |  |  |  | 
25 | Cc1ccc2[nH]c3c(c(=O)n(C)c(=O)n3C)c2c1 | > 100 µM (inactive) | > 100 µM (inactive) |  |  |  |  |  | 
26 | COc1nc(SC)nc2c1cnn2C1OC(C(O)CO)C(OC)C1O (stereo not drawn) |  |  | > 80 µM (inactive) | > 100 µM (inactive) | > 75.5 µM (inactive) | > 100 µM (inactive) | > 100 µM (inactive) | 
27 | CC(=O)C1CC[C@@H]2[C@H](CC[C@]3(C)[C@@H](O)CC[C@@H]23)[C@H]1C(=O)O (stereo partly drawn) | > 100 µM (inactive) |  |  |  |  |  |  | 
28 | COc1ccc(/C(C#N)=C/c2ccc(OC)c(OC)c2)cc1 |  | > 100 µM (inactive) |  |  |  |  |  | 
29 | COc1cc(C2C(C(=O)O)=C(CO)Oc3cc4c(cc32)OCO4)cc(OC)c1O (stereo not drawn) |  |  | > 100 µM (inactive) | > 100 µM (inactive) |  |  | > 100 µM (inactive) | 
30 | C=CCc1cccc(C(=O)/C=C(O)/C=C/c2ccccc2Cl)c1O | 37.4 µM (inactive) | 10.4 µM (inactive) |  |  |  |  |  | 
31 | O=C(CSc1nnc(Cc2ccccc2)o1)Nc1ccc(Cl)cc1[N+](=O)[O-] |  | 16.5 µM (inactive) |  |  | 17 µM (inactive) | 17.5 µM (inactive) | 14.7 µM (inactive) | GI50 (LXFL 529): 17.1 µM (inactive)
32 | CC1(C)OP23(NC(=O)OC2(C(F)(F)F)c2ccccc2O3)OC1(C)C (stereo not drawn) |  |  | > 100 µM (inactive) | > 100 µM (inactive) | > 100 µM (inactive) | > 100 µM (inactive) | > 100 µM (inactive) | GI50 (LXFL 529): > 100 µM (inactive)
33 | O=c1[nH]nc(Cc2ccc(Cl)cc2)n1CCO | > 100 µM (inactive) | > 100 µM (inactive) |  |  |  |  |  | 
34 | Cc1nc2ccccc2n1C(=O)c1c(F)c(F)c(F)c(F)c1F | 21 µM (inactive) |  |  |  |  |  |  | 
35 | c1ccc(NN/N=N/c2ccc(-c3nc4ccccc4[nH]3)cc2)cc1 | 29.4 µM (inactive) | 28.2 µM (inactive) |  |  |  |  |  | 
36 | C/C(=N\NC(=S)N1CCCCCC1)c1nccnc1C |  | 5.14 µM (inactive) | < 0.01 µM (active) | 1.42 µM (inactive) | 0.174 µM (active) | 1.43 µM (inactive) | 0.617 µM (active) | GI50 (LXFL 529): < 0.01 µM (active)

From ChEMBL document CHEMBL1201862, “PubChem BioAssay data set” (2004)
